Experimental data from patent US20140170199A1, “PARASITICIDAL COMBINATION COMPRISING INDOXACARB AND DELTAMETHRIN” (priority 2011, published 2014).

What was measured:
[1] = system: voltage-dependent sodium channels expressed in DUM neurons; assay: Whole-cell patch-clamp of voltage-dependent inward sodium current in isolated DUM neuron cell bodies; assay type: cell-based, cockroaches (Periplaneta Americana)
Procedure: Experiments were performed on dorsal unpaired median (DUM) neuron cell bodies (Grolleau and Lapied (2000), J. Exp. Biol., 203, 1633-1648) isolated from the dorsal midline of the terminal abdominal ganglion of adult male cockroaches (Periplaneta Americana) taken from a stock colony, maintained at 29° C. with a photoperiod of 12 hours light:12 hours dark.
Adult male cockroaches were immobilised dorsal-side up on a dissection dish. The dorsal cuticle, gut and some dorso-longitudinal muscles were removed, to allow access to the ventral nerve cord. The abdominal nerve cord and its terminal abdominal ganglion (TAG), carefully dissected under a binocular microscope, were placed in normal saline. Isolation of adult DUM neuron cell bodies was performed under sterile conditions using enzymatic digestion and mechanical dissociation of the median part of the TAG (Lapied et al. (1989), J. Exp. Biol., 144, 535-549).
Ganglia were excised and incubated for 35 min at 29° C. in cockroach saline supplemented with 1.5 mg/ml collagenase (type I, Worthington, Lakewood, N.J.). After thoroughly washing off the enzyme, ganglia were mechanically dissociated by gentle repeated suctions through fire-polished Pasteur pipettes. Then, the isolated DUM neuron cell bodies were maintained at 29° C. for 24 hours before experiments are carried out.
Isolated neuronal cell bodies were used for electrophysiological studies. […] A total number of six different isolated cell bodies (six replicates) were used for each experiment.
Deltamethrin and DCJW (IN-JT333), stock solutions (100 mM and 10 mM, respectively) were prepared in dimethylsulphoxide (DMSO, Sigma Chemical, France). Final dilutions contained a maximum of 0.1% DMSO.
Deltamethrin and DCJW, prepared in cockroach saline, were applied separately by a gravity perfusion system onto isolated cell body maintained in short-term culture.
Experiments were carried out at room temperature (20° C.).
The patch-clamp technique in the whole-cell recording configuration (voltage-clamp condition) was used to record voltage-dependent inward sodium current. […]
For each time point, relative sodium current amplitudes are expressed as means±standard errors of the mean (SEM) (table 2). […]
In addition to the concomitant application of deltamethrin and DCJW, the effect of the mixture DCJW (10^−7M) and deltamethrin (10^−5 M) on DUM neuron was assessed after a pre-treatment of the cell body by deltamethrin (10^−5 M) for 5 minutes. […]
As in Example 2, for each time point, relative sodium current amplitudes were expressed as means±standard errors of the mean (SEM). […]

[2] = system: Rhipicephalus sanguineus ticks; assay: Tick control on dogs (experimental infestation, tick counts and efficacy); assay type: in vivo; parameters: Tick efficacies, arithmetic mean / Tick efficacies, geometric mean: concentration or dose not given beside the values
Procedure: The SCALIBOR® collar was administered to dogs according to the instructions in the Product leaflet. The topical formulation of indoxacarb was administered to dogs in Groups 3 and 4 according to the dose table below:
A 4% deltamethrin-impregnated collar (SCALIBOR®, Merck Animal Health) is used to protect dogs from the bites of sand flies (Phlebotomus sp.), mosquitoes (Culex sp.), and ticks for up to six months with high persistent efficacy. Immediate efficacy of the collar against fleas is known to be inadequate.
The study was conducted on four groups of eight dogs each. • Group 1: Negative control. • Group 2: Dogs were fitted with the Scalibor® collar on Day 0. • Group 3: Dogs were treated with a topical formulation of indoxacarb on Days 0, 30, 60, 90, 120, 150, and 180 (once a month for 6 months). • Group 4: Dogs were fitted with the Scalibor® collar (4% deltamethrin) on Day 0 and treated with a topical formulation of indoxacarb on Days 0, 30, 60, 90, 120, 150, and 180 (once a month for 6 months). Dogs were experimentally infested with 100 fleas and 50 ticks two days before treatment (Day 0) and then on various days throughout the study.
Efficacy against ticks and fleas was calculated for each treatment group at each assessment day according to the formulas given below. Due to the fact that small and even zero tick and flea counts were recorded, it was expected that the tick and flea counts would not follow a normal distribution. It was therefore decided that the primary efficacy calculations would be based on geometric means rather than arithmetic means. The calculations were based on the geometric means of the tick or flea (count+1) data. One (1) was subsequently subtracted from the result to obtain a meaningful value for the geometric mean of each treatment group. Efficacy calculations based on arithmetic means were, however, also reported on.
Percent efficacy against ticks was calculated as follows:
Efficacy(%)=100×(Gmc−Gmt)/Gmc, where:
Gmc=Geometric or arithmetic mean number of live ticks (categories 1-3) on dogs in the control group (Group 1) at a specific time point. Gmt=Geometric or arithmetic mean number of live ticks (categories 1-3; immediate Day+2 efficacy) and dead attached engorged ticks (category 6; residual >Day+2 efficacies) on dogs in the treatment groups (Groups 2, 3 & 4) at a specific time point.

[3] = DCJW 10^-7 M alone, after 20 minutes
[4] = Day +2 (immediate), vs negative control
[5] = Day +2, count ~48 h after treatment or infestation
[6] = Day +16, count ~48 h after infestation
[7] = Day +30, count ~48 h after infestation
[8] = Day +44, count ~48 h after infestation
[9] = Day +72, count ~48 h after infestation
[10] = Day +100, count ~48 h after infestation
[11] = Day +128, count ~48 h after infestation
[12] = Day +156, count ~48 h after infestation
[13] = Day +170, count ~48 h after infestation
[14] = Day +184, count ~48 h after infestation

N#Cc1ccc(CC(=NNC(=O)Nc2ccc(OC(F)(F)F)cc2)c2cccc(C(F)(F)F)c2)cc1 (mixture of isomers) [metaflumizone E/Z, (EZ)-2012-(4-cyanophenyl)-1-(a,a,a-trifluoro-mtolypethylidene]-4 (trifluoromethoxy) carbanilohydrazide]
Effect on the sodium current amplitude ([1]; bath application at different concentrations (10^-10 to 10^-5 M), alone): produced a reduction of the sodium current amplitude
Dose dependence of the reduction of sodium current amplitude ([1]; different concentrations (10^-10 to 10^-5 M), alone): not dose-dependent

COC(=O)C12Cc3cc(Cl)ccc3C1=NN(C(=O)Nc1ccc(OC(F)(F)F)cc1)CO2 (stereo not shown) [DCJW, methyl 7-chloro-2,5-dihydro-2-[[[4-(trifluoromethoxy)phenyl]amino]carbonyl]indeno-[1,2-e][1,3,4]oxadiazine-4a(3H)-carboxylate]
Percentage of inhibition of the sodium current amplitude [1, 3]: 40.7%
Sodium current amplitude (relative to control current 100%) [1, 3]: 59.3%

CC1(C)[C@H](C(=O)O[C@H](C#N)c2cccc(Oc3ccccc3)c2)[C@@H]1C=C(Br)Br [deltamethrin, (S)-α-Cyano-3-phenoxybenzyl-(1R,3R)-3-(2,2-dibromovinyl)-2,2-dimethylcyclopropanecarboxylate]
Tick efficacies, geometric mean [2, 4]: 76.9%

COC(=O)N(C(=O)N1CO[C@@]2(C(=O)OC)Cc3cc(Cl)ccc3C2=N1)c1ccc(OC(F)(F)F)cc1 [indoxacarb, (5)-methyl 7-chloro-2,5-dihydro-2-[[(methoxycarbonyl) [4-(trifluoromethoxy)phenyl]amino]carbonyl]indeno[1,2-e][1,3,4]oxadiazine-4a(3H)-carboxylate]
Tick efficacies, arithmetic mean [2, 4]: 13.3%
Tick efficacies, geometric mean [2, 4]: 15.5%
Tick counts, arithmetic mean [2, 5]: 18.8
Tick counts, geometric mean [2, 5]: 18.1^4
Immediate or persistent effectiveness against R. sanguineus ticks ([2]; Day +2 to Day 184): No immediate or persistent effectiveness
Tick counts, arithmetic mean [2, 6]: 13.8
Tick counts, geometric mean [2, 6]: 12.1^4
Tick efficacies, arithmetic mean ([2]; Day +16, vs negative control): 34.3%
Tick efficacies, geometric mean ([2]; Day +16, vs negative control): 37.4%
Tick counts, arithmetic mean [2, 7]: 14.0
Tick counts, geometric mean [2, 7]: 9.8^2,4
Tick efficacies, arithmetic mean ([2]; Day +30, vs negative control): 42.0%
Tick efficacies, geometric mean ([2]; Day +30, vs negative control): 58.7%
Tick counts, arithmetic mean [2, 8]: 18.4
Tick counts, geometric mean [2, 8]: 18.0^4
Tick efficacies, arithmetic mean ([2]; Day +44, vs negative control): 25.0%
Tick efficacies, geometric mean ([2]; Day +44, vs negative control): 25.8%
Tick counts, arithmetic mean [2, 9]: 24.5
Tick counts, geometric mean [2, 9]: 23.5^4
Tick efficacies, arithmetic mean ([2]; Day +72, vs negative control): 20.0%
Tick efficacies, geometric mean ([2]; Day +72, vs negative control): 20.9%
Tick counts, arithmetic mean [2, 10]: 18.3
Tick counts, geometric mean [2, 10]: 16.0^4
Tick efficacies, arithmetic mean ([2]; Day +100, vs negative control): 35.4%
Tick efficacies, geometric mean ([2]; Day +100, vs negative control): 40.9%
Tick counts, arithmetic mean [2, 11]: 24.5
Tick counts, geometric mean [2, 11]: 22.6^4
Tick efficacies, arithmetic mean ([2]; Day +128, vs negative control): 12.1%
Tick efficacies, geometric mean ([2]; Day +128, vs negative control): 16.0%
Tick counts, arithmetic mean [2, 12]: 25.4
Tick counts, geometric mean [2, 12]: 25.0^4
Tick efficacies, arithmetic mean ([2]; Day +156, vs negative control): 12.1%
Tick efficacies, geometric mean ([2]; Day +156, vs negative control): 12.2%
Tick counts, arithmetic mean [2, 13]: 21.1
Tick counts, geometric mean [2, 13]: 19.9^4
Tick efficacies, arithmetic mean ([2]; Day +170, vs negative control): 18.4%
Tick efficacies, geometric mean ([2]; Day +170, vs negative control): 20.0%
Tick counts, arithmetic mean [2, 14]: 18.3
Tick counts, geometric mean [2, 14]: 17.1^4
Tick efficacies, arithmetic mean ([2]; Day +184, vs negative control): 25.1%
Tick efficacies, geometric mean ([2]; Day +184, vs negative control): 28.3%
